{
  "source": "patent US20160361311A1",
  "about": "“LIGANDS THAT TARGET HEPATITIS C VIRUS E2 PROTEIN” (AMERICAN UNIVERSITY OF CAIRO, priority 2014, published 2016)",
  "key": {"recombinant E2 protein": {"target": "T1, recombinant E2 protein (Hepatitis C virus genotype 1b, UniProt Q9WMX2)", "T1 construct": "encoding amino acids 384-656 of the Con1 envelope protein 2 ectodomain (eE2); made in house; host or cells: HEK293T cells (lentiviral, secreted)", "T1 sequence (Q9WMX2 384-656)": "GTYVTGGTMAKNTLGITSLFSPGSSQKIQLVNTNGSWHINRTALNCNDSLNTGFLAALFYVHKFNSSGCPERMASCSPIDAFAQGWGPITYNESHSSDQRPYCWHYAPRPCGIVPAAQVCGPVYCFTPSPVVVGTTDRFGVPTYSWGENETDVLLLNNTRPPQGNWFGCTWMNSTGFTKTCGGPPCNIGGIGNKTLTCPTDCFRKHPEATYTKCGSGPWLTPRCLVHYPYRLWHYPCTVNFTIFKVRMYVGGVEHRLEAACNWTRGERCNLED", "assay": "Surface plasmon resonance (Biacore T100) binding to recombinant E2 immobilized on CM5 chip", "from_the_text": "A construct containing the sequence encoding amino acids 384-656 of the Con1 envelope protein 2 ectodomain (eE2), a genoptype 1 E2 sequence, was cloned into a lentiviral expression vector with a carboxy-terminal Protein A tag separated by a PreScission Protease cleavage consensus sequence. eE2-ProtA was stably expressed in HEK293T cells using lentiviral infection. The protein was secreted into the media and supernatants were purified using IgG Sepharose (GE Healthcare, Piscataway, N.J.). eE2-ProtA was eluted with 100 mM sodium citrate and 20 mM KCl at pH 3 directly into tubes containing 1M Tris pH 9 for immediate neutralization. PreScission Protease was added to the eluted sample at a ratio of 1:50 (enzyme:eE2), and the digest was then dialyzed into 20 mM HEPES pH 7.5, 250 mM NaCl, 5% glycerol. eE2 was separated from the cleaved tag and the PreScission Protease by ion exchange chromatography.\nThe set of 34 of the ligands predicted by AutoDock to bind to E2 were tested experimentally to determine if they bind to recombinant E2 protein immobilized on a chip using surface Plasmon resonance. The SPR analyses were performed using a Biacore T100 workstation (GE Healthcare, NJ, USA) and Prot-A-tagged HCV E2 protein. 1 μM ProtA-HCV E2 was diluted into 10 mM sodium acetate buffer pH 5 and immobilized for 15 min at a flow speed of 5 μl/min onto a CM5 sensor chip using amine coupling (EDC-NHS). Approximately 10,000 response units (RU) of protein were immobilized on the chip. His-CD81-LEL (Bioclone-CA/USA) binding to HCV E2 was tested prior to injecting the ligands to confirm the E2 protein was functional and would bind CD81-LEL. In a typical experiment with CD81, […] of his-CD81 in 114 μl PBS was injected into channel 2 and 106.4 RUs of CD81 bound to the E2 on the chip. This was followed by testing the binding of the 34 virtual screening hits where the ligands were prepared as 200 μM solutions in PBS and they were introduced to the protein using a pre-programmed 3 min association and 1 min dissociation interval. The response was measured at two time points during dissociation, 10 and 50 seconds, to obtain information on the rate of ligand dissociation from E2. Twenty-three of the ligands predicted by AutoDock to bind to E2 were observed by SPR to bind to the recombinant protein (Table 2). The measured responses for the ligands that bound varied from 54 to 276 RUs. Data was also obtained on the rate of ligand dissociation by measuring the amount of ligand remaining bound at two time points, dissociation 1 (10 seconds) and dissociation 2 (50 seconds), during the rinsing of the chip with buffer (FIG. 8). The majority of the ligands dissociated quickly, as one might expect for small molecules that bind to the surface of a protein."}, "RD114pp": {"tested_on": "RD114pp", "assay": "RD114pp infection of Huh-7 cells (luciferase)", "type": "cell-based, feline endogenous virus RD114", "conditions": "Feline endogenous virus RD114, Huh-7, 30 h, read-out: IC50 RD114pp", "protocol": "Pseudotyped retroviral particles harboring HCV envelope proteins (HCVpp) from different genotypes were produced as described previously. A plasmid encoding the feline endogenous virus RD114 glycoprotein [35] was used for the production of RD114pp. Both HCVpp and RD114pp expressed Firefly luciferase.\n(§1) To identify ligands that inhibit HCV infection, Huh-7 cells were seeded in 96-well plates and treated the day after with six different concentrations of each ligand diluted in DMSO in duplicate using a Zephyr automated liquid handling workstation (Caliper BioSciences, Hopkinton, Mass.). The final concentration of DMSO (1%) was adjusted to be the same for all ligand concentrations. Cells treated with DMSO were used as negative controls. Cells treated with different concentrations of anti-CD81 (JS-81 from BD Pharmingen, San Jose, Calif.) 1 hour before infection, were also used as positive controls. The third day, RD114pp, HCVpp or HCVcc were inoculated and incubated for 30 hours at 37° C. Firefly and Gaussia luciferase assays were performed as indicated by the manufacturer (Promega, San Luis Obispo, Calif.).\nPseudotyped retroviral particles harboring the envelope protein of an endogenous feline retrovirus (RD114pp) were first used to determine the specificity and the safety of molecules."}, "[1]": {"assay": "MTS viability / hepatocyte toxicity assay", "type": "cell-based", "conditions": "human", "protocol": "(§2) The analysis of the effect of 281816 ligand on Huh-7 infection by HCVpp bearing envelope proteins from different genotypes was performed in 24-well plates using the method described above. This ligand was also screened for toxicity to the hepatocytes using the MTS (3-(4,5-dimethylthiazol-2-yl)-5-(3-carboxymethoxyphenyl)-2-(4-sulfophenyl)-2Htetrazolium) assay.\n(§3) The remaining ligands were next tested against pseudotyped retroviral particles harboring genotype-2a HCV envelope proteins (HCVpp 2a), cell culture produced HCV particles (HCVcc) or RD114pp. As a positive control, an anti-CD81 antibody was used in parallel."}, "hepatocytes": {"tested_on": "hepatocytes", "assay": "MTS viability / hepatocyte toxicity assay", "type": "cell-based", "conditions": "over the concentrations tested in the infection assays, highest 10 μM", "protocol": "as §2, §3"}, "HCVcc": {"tested_on": "HCVcc", "assay": "HCVcc infection of Huh-7 cells (Gaussia luciferase)", "type": "cell-based, HCV", "conditions": "Hepatitis C virus, Huh-7, 30 h, read-out: IC50 HCVcc", "protocol": "The cell culture-produced HCV particles (HCVcc) used in this study were based on the JFH1 strain [36] and were prepared as described previously. They were engineered to express the A4 epitope, titer-enhancing mutations and Gaussia luciferase.\nas §1, §3"}},
  "data": [
    {"compound": "CSc1ccc2c(c1)C(N1CCN(C)CC1)Cc1ccccc1S2", "note": "(stereo not shown) [Ligand 281816]", "values": [
      {"measurement": "Binding (RU)", "setting": "recombinant E2 protein; 200 μM ligand in PBS, 3 min association", "value": 64.5, "unit": "RU"},
      {"measurement": "Dissociation 1 (RU)", "setting": "recombinant E2 protein; response remaining 10 sec after rinsing with buffer", "value": 3.7, "unit": "RU"},
      {"measurement": "Dissociation 2 (RU)", "setting": "recombinant E2 protein; response remaining 50 sec after rinsing with buffer", "value": 0.9, "unit": "RU"},
      {"measurement": "IC50", "setting": "RD114pp", "value": "> 10", "unit": "µM"},
      {"measurement": "CC50", "setting": "[1]", "value": 14, "unit": "µM"},
      {"measurement": "hepatocyte toxicity", "setting": "hepatocytes", "value": "not observed"},
      {"measurement": "IC50", "setting": "HCVcc", "value": 3.95, "unit": "µM"}
    ]}
  ]
}
